In US20220274983A1, “JAK KINASE INHIBITOR AND USE THEREOF” (JIANGSU CAREPHAR PHARMACEUTICAL CO., LTD., priority 2019, published 2022):
Each block holds one compound with its values, some of them ahead of it.

Legend:
Pharmacokinetic study = format: in vivo; settings: rat, plasma; rats, oral, 1-10 mg/kg
Description: For the intravenous route and the oral route, the compound was formulated in an aqueous solution containing 5% DMSO+95% hydroxypropyl-β-cyclodextrin. Test animals were administered orally at 1-10 mg/kg and intravenously at 1-5 mg/kg. Each group included 3 rats. About 0.2 mL of blood was collected by jugular vein puncture with heparin sodium anticoagulant at the following time points: 0.083 h, 0.25 h, 0.5 h, 1 h, 2 h, 4 h, 6 h, 8 h, 10 h and 24 h. Plasma was separated by centrifugation at 5000-13000 rpm for 10 min within 1 hour after collecting the blood sample, and the plasma sample was analyzed on LC-MS/MS.
The pharmacokinetic parameters were calculated using Phoenix WinNonlin 7.0 based on blood drug concentration data at different time points to provide parameters such as AUC0-t, AUC0-∞, MRT0-∞, Cmax, Tmax, and T1/2.

[1] = molecular target: T1, humanether-a-go-go related gene (hERG) channels (Homo sapiens, UniProt Q12809); assay: hERG test, patch clamp in HEK293 cells; format: cell-based; settings: HEK293 cells expressing hERG, tail current
T1 construct: expressed in transfected cells; host or cells: HEK293
T1 sequence (Q12809 whole entry): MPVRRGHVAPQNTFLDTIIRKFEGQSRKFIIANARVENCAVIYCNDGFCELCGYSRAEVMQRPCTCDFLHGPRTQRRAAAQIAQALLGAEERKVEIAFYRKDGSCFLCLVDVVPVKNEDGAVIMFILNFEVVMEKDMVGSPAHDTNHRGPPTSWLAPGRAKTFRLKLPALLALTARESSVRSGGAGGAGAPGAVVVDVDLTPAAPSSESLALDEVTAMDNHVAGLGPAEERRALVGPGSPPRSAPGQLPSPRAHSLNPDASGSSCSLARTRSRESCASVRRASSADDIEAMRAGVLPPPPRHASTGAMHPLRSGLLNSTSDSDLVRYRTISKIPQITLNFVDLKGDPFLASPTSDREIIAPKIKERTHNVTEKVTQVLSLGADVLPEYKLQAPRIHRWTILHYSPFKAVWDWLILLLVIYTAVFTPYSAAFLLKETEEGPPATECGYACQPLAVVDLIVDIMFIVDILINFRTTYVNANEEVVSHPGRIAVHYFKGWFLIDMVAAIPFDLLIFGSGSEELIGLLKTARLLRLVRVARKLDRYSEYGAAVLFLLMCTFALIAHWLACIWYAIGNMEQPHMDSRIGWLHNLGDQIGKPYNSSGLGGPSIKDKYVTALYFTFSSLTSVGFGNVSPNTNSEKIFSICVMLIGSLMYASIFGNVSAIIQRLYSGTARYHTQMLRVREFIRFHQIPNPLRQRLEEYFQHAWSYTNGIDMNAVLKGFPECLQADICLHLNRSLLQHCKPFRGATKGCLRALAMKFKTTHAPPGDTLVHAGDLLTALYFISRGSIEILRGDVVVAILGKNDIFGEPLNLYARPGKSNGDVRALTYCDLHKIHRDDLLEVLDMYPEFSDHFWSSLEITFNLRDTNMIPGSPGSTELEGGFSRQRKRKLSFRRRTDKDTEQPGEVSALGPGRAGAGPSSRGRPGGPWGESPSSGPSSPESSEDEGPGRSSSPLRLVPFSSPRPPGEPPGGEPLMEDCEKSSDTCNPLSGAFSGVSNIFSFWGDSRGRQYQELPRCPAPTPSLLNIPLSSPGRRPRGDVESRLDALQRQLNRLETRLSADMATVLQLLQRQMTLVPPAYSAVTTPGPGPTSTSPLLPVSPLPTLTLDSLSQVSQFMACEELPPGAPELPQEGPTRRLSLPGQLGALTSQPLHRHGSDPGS
From the text: For the purpose of evaluating the risk of prolonged QT interval in ECG of the compound according to the present invention, HEK293 cells expressing humanether-a-go-go related gene (hERG) channels were used to study the effect of the compound according to the present invention on the delayed rectifier K+ current (Ikr) playing an important role in ventricular repolarization.
The cells are maintained at −80 mV using a fully automatic patch clamp system (patch clamp PC-505B (WARNER instruments)) through a fully automatic patch clamp method, and then depolarized to 40 mV with a square wave lasting 4 s and hyperpolarized to −40 mV with a square wave lasting 2 s to obtain the hERG tail current. The maximum current induced by the second square wave was detected. After this current was stabilized, the test compound was perfused. After the reaction was stabilized, the blocking strength was calculated.
Extracellular fluid (mM): NaCl, 137; KCl, 4; CaCl2, 1.8; MgCl2, 1; HEPES, 10; glucose 10; pH 7.4 (NaOH titration). Intracellular fluid (mM): K Aspartate, 130; MgCl2, 5; EGTA 5; HEPES, 10; Tris-ATP 4; pH 7.2 (KOH titration).

rat CIA model [2] = assay: Hindfoot foot volume in rat CIA model; format: in vivo, Lewis rats; settings: CIA rats; for Foot volume (ml)/Day: hindfoot
Description: (§1) Lewis rats (female, 10-12 weeks old) were obtained from Beijing Vital River Laboratory Animal Technology Co., Ltd. The rats were on a light and dark alternation for 12 h, and the environment was kept at a temperature of 23±2° C. and a humidity of 40-70%.
(§2) Type II collagen solution (2 mg/mL) was prepared with 0.05 M acetic acid solution to allow to be fully dissolved, and placed overnight in the dark at 4° C. During the test, 2 mg/mL type II collagen (C II) solution and 4 mg/mL complete Freund's adjuvant (CFA) solution were mixed in equal volumes under ice bath conditions to fully emulsify. On day 0, an emulsion prepared by mixing equal volumes of C II (2 mg/mL) and CFA (4 mg/mL) was injected intracutaneously into the base of the tail of experimental rats for primary immunization, and on day 7, secondary booster immunization was performed.
(§3) The therapeutic effect of the test compound was tested in a rat CIA model. The rats were randomly divided into groups with 8 animals in each group. All animals were immunized on day 0 and boosted on day 7.
Therefore, the differences in body weight and foot volume after the onset of arthritis compared with the negative group, respectively, can be used to evaluate the therapeutic effect in the rat model. The experimental data were expressed as Mean±SEM; the data between the two groups was tested by unpaired t-test and p<0.05 was considered as a significant difference.

rat CIA model [3] = assay: Arthritis index (AI) of extremities in rat CIA model; settings: CIA rats; for Arthritis index/Day: score 0-16;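 for all read-outs here: rats immunized with type II collagen plus complete Freund's adjuvant on day 0, boosted day 7, groups of 8, each paw graded 0-4 for swelling or redness, higher means worse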
Description: as §1, §2, §3
Foot volume was scored for the swelling of four toes at the same time, the score for each foot was 0-4, and the highest score for each rat was 16. 0—no swelling, normal appearance; 1—mild swelling or redness of the ankle joint, wrist joint or finger joint; 2—moderate swelling or redness of the ankle joint, wrist joint or finger joint; 3—severe swelling or redness of the ankle joint, wrist joint or finger joint; 4—very severe swelling or redness of the ankle joint, wrist joint or finger joint.

[4] = Stability of liver microsomes; format: in vitro ADME; settings: 10 umol/L
Description: Liver microsomes belonging to different species (human, rat) were respectively reacted with the compound according to the present invention for a certain period of time, and the residual rate was calculated by comparing a reacted sample with an unreacted sample, and the extent to which the compounds according to the present invention were metabolized by the liver was evaluated.

[5] = 2 mg/kg oral gavage once daily for 2 w, day 0
[6] = 2 mg/kg oral gavage once daily for 2 w, day 8
[7] = 2 mg/kg oral gavage once daily for 2 w, day 11
[8] = 2 mg/kg oral gavage once daily for 2 w, day 14
[9] = 2 mg/kg oral gavage once daily for 2 w, day 17
[10] = 2 mg/kg oral gavage once daily for 2 w, day 21
[11] = 2 mg/kg oral gavage once daily for 2 w, day 24
[12] = 2 mg/kg oral gavage once daily for 2 w, day 28
[13] = 3 mg/kg oral gavage once daily for 2 w, day 0
[14] = 3 mg/kg oral gavage once daily for 2 w, day 8
[15] = 3 mg/kg oral gavage once daily for 2 w, day 11
[16] = 3 mg/kg oral gavage once daily for 2 w, day 14
[17] = 3 mg/kg oral gavage once daily for 2 w, day 17
[18] = 3 mg/kg oral gavage once daily for 2 w, day 21
[19] = 3 mg/kg oral gavage once daily for 2 w, day 24
[20] = 3 mg/kg oral gavage once daily for 2 w, day 28
[21] = 5 mg/kg oral gavage once daily for 2 w, day 0
[22] = 5 mg/kg oral gavage once daily for 2 w, day 11
[23] = 5 mg/kg oral gavage once daily for 2 w, day 14
[24] = 5 mg/kg oral gavage once daily for 2 w, day 17
[25] = 5 mg/kg oral gavage once daily for 2 w, day 21
[26] = 5 mg/kg oral gavage once daily for 2 w, day 24
[27] = 5 mg/kg oral gavage once daily for 2 w, day 28
[28] = 10 mg/kg oral gavage once daily for 2 w, day 0
[29] = 10 mg/kg oral gavage once daily for 2 w, day 8
[30] = 10 mg/kg oral gavage once daily for 2 w, day 11
[31] = 10 mg/kg oral gavage once daily for 2 w, day 14
[32] = 10 mg/kg oral gavage once daily for 2 w, day 17
[33] = 10 mg/kg oral gavage once daily for 2 w, day 21
[34] = 10 mg/kg oral gavage once daily for 2 w, day 24
[35] = 10 mg/kg oral gavage once daily for 2 w, day 28

- AUC (Pharmacokinetic study): 12000 ng·h/mL
- Cmax (Pharmacokinetic study): 2630 ng/mL
- half-life (Pharmacokinetic study): 2.68 h
SMILES: O=C(Nc1nc2cccc(-c3ccc(CN4CCS(=O)(=O)CC4)s3)n2n1)C1CC1 [EXP-1]

SMILES: O=C(Nc1cn2c(-c3ccc(CN4CCS(=O)(=O)CC4)s3)cccc2n1)[C@H]1C[C@@H]1F (relative stereo) [EXP-3, trans-N-[5-[5-[(1,1-dioxo-1,4-thiazin-4-yl)methyl]-2-thiophene]imidazo[1,2-a]pyridin-2-yl]-2-fluoro-cyclopropylcarboxamide]
- IC50 [1]: > 10 µM
- foot volume, relative potency in words (rat CIA model [2]; 10 mg/kg): the most potent and significantly stronger than filgotinib 10 mg/kg
- Foot volume (ml)/Day (rat CIA model [2]; [5]): 2.603 ± 0.021 mL
- Foot volume (ml)/Day (rat CIA model [2]; [6]): 2.590 ± 0.027 mL
- Foot volume (ml)/Day (rat CIA model [2]; [7]): 2.634 ± 0.059 mL
- Foot volume (ml)/Day (rat CIA model [2]; [8]): 3.648 ± 0.303 mL
- Foot volume (ml)/Day (rat CIA model [2]; [9]): 4.465 ± 0.261 mL
- Foot volume (ml)/Day (rat CIA model [2]; [10]): 4.600 mL
- Foot volume (ml)/Day (rat CIA model [2]; [11]): 4.487 mL
- Foot volume (ml)/Day (rat CIA model [2]; [12]): 4.181 mL
- Foot volume (ml)/Day (rat CIA model [2]; [13]): 2.633 ± 0.017 mL
- Foot volume (ml)/Day (rat CIA model [2]; [14]): 2.624 ± 0.010 mL
- Foot volume (ml)/Day (rat CIA model [2]; [15]): 2.706 ± 0.037 mL
- Foot volume (ml)/Day (rat CIA model [2]; [16]): 3.724 ± 0.239 mL
- Foot volume (ml)/Day (rat CIA model [2]; [17]): 4.759 ± 0.291 mL
- Foot volume (ml)/Day (rat CIA model [2]; [18]): 4.863 mL
- Foot volume (ml)/Day (rat CIA model [2]; [19]): 4.754 mL
- Foot volume (ml)/Day (rat CIA model [2]; [20]): 4.299 mL
- Foot volume (ml)/Day (rat CIA model [2]; [21]): 2.631 ± 0.017 mL
- Foot volume (ml)/Day (rat CIA model [2]; [22]): 2.703 ± 0.061 mL
- Foot volume (ml)/Day (rat CIA model [2]; [23]): 3.684 ± 0.315 mL
- Foot volume (ml)/Day (rat CIA model [2]; [24]): 4.516 ± 0.302 mL
- Foot volume (ml)/Day (rat CIA model [2]; [25]): 4.724 mL
- Foot volume (ml)/Day (rat CIA model [2]; [26]): 4.582 mL
- Foot volume (ml)/Day (rat CIA model [2]; [27]): 4.176 mL
- Foot volume (ml)/Day (rat CIA model [2]; [28]): 2.645 ± 0.017 mL
- Foot volume (ml)/Day (rat CIA model [2]; [29]): 2.613 ± 0.017 mL
- Foot volume (ml)/Day (rat CIA model [2]; [30]): 2.647 ± 0.075 mL
- Foot volume (ml)/Day (rat CIA model [2]; [31]): 3.652 ± 0.287 mL
- Foot volume (ml)/Day (rat CIA model [2]; [32]): 4.249 ± 0.342 mL
- Foot volume (ml)/Day (rat CIA model [2]; [33]): 4.331 mL
- Foot volume (ml)/Day (rat CIA model [2]; [34]): 4.125 mL
- Foot volume (ml)/Day (rat CIA model [2]; [35]): 3.826 mL
- Arthritis index/Day (rat CIA model [3]; [5]): 0 ± 0
- Arthritis index/Day (rat CIA model [3]; [6]): 0 ± 0
- Arthritis index/Day (rat CIA model [3]; [7]): 0.50 ± 0.33
- Arthritis index/Day (rat CIA model [3]; [8]): 3.63 ± 0.91
- Arthritis index/Day (rat CIA model [3]; [9]): 6.25 ± 1.36
- Arthritis index/Day (rat CIA model [3]; [10]): 9.00 ± 1.24
- Arthritis index/Day (rat CIA model [3]; [11]): 9.13 ± 1.04
- Arthritis index/Day (rat CIA model [3]; [12]): 8.63 ± 0.63
- Arthritis index/Day (rat CIA model [3]; [13]): 0 ± 0
- Arthritis index/Day (rat CIA model [3]; [14]): 0 ± 0
- Arthritis index/Day (rat CIA model [3]; [15]): 0.38 ± 0.18
- Arthritis index/Day (rat CIA model [3]; [16]): 3.75 ± 0.70
- Arthritis index/Day (rat CIA model [3]; [17]): 6.25 ± 0.75
- Arthritis index/Day (rat CIA model [3]; [18]): 10.25 ± 0.70
- Arthritis index/Day (rat CIA model [3]; [19]): 10.88 ± 0.44
- Arthritis index/Day (rat CIA model [3]; [20]): 9.25 ± 0.45
- Arthritis index/Day (rat CIA model [3]; [21]): 0 ± 0
- Arthritis index/Day (rat CIA model [3]; 5 mg/kg oral gavage once daily for 2 w, day 8): 0 ± 0
- Arthritis index/Day (rat CIA model [3]; [22]): 0.63 ± 0.26
- Arthritis index/Day (rat CIA model [3]; [23]): 3.50 ± 0.76
- Arthritis index/Day (rat CIA model [3]; [24]): 5.88 ± 1.22
- Arthritis index/Day (rat CIA model [3]; [25]): 9.00 ± 1.22
- Arthritis index/Day (rat CIA model [3]; [26]): 9.13 ± 1.04
- Arthritis index/Day (rat CIA model [3]; [27]): 8.00 ± 0.65
- arthritis index, relative effect on swelling of the extremities in words (rat CIA model [3]; 10 mg/kg): strongest effect on reducing swelling of the extremities
- Arthritis index/Day (rat CIA model [3]; [28]): 0 ± 0
- Arthritis index/Day (rat CIA model [3]; [29]): 0 ± 0
- Arthritis index/Day (rat CIA model [3]; [30]): 0.38 ± 0.38
- Arthritis index/Day (rat CIA model [3]; [31]): 3.75 ± 0.70
- Arthritis index/Day (rat CIA model [3]; [32]): 5.00 ± 0.89
- Arthritis index/Day (rat CIA model [3]; [33]): 6.50 ± 0.50
- Arthritis index/Day (rat CIA model [3]; [34]): 7.25 ± 0.56
- Arthritis index/Day (rat CIA model [3]; [35]): 7.25 ± 0.41
- residual rate of the compound in oxidative metabolism ([4]; human liver microsomes): 59.32%
- residual rate of the compound in oxidative metabolism ([4]; rat liver microsomes): 55.3%
